Measured values published in patent US20220348572A1, “BRIDGED HETEROCYCLYL-SUBSTITUTED PYRIMIDINE COMPOUND, PREPARATION METHOD THEREFOR, AND PHARMACEUTICAL USE THEREOF” (The National Institutes of Pharmaceutical R&D Co., Ltd., priority 2019, published 2022).

Experiments:
[1] = molecular target: T1, TYK2 kinase (Homo sapiens, UniProt P29597); test: In vitro inhibitory activity on Tyk2 kinase (ADP-Glo Kinase Assay); assay type: biochemical; conditions: TYK2 kinase 4 nM, 1 mM ATP
T1 sequence (P29597 897-1187 limits assumed): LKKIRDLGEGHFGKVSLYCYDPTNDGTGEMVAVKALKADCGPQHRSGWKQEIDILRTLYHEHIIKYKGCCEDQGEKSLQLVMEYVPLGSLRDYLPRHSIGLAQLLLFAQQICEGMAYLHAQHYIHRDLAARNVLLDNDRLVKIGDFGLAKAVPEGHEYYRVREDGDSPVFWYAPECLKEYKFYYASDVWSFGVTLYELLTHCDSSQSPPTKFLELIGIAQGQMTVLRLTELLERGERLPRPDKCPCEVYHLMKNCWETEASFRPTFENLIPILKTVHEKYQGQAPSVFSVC
Procedure: Test Example 2: Determination of In Vitro Inhibitory Activity of the Compounds of the Present Invention on Tyk2 Kinase Experimental materials: TYK2 (Invitrogen, PV4790), ATP (Promega, V915B), ADP-Glo Kinase Assay (Promega, V9101), IRS1 (Signalchem, 140-58-1000). Sample preparation: The compounds of the present invention and the control product were dissolved in DMSO solvent respectively to formulate into 10 mM initial liquid. The maximum concentration of the compound was 10 μM, 3-fold dilution, 10 concentration gradients, and duplicate wells for each concentration gradient. Experimental process: 0.1 μL of the compound to be tested was transferred into a 384 reaction plate (PE, 6007290) via Echo and centrifuged at 1000 rpm/min for 1 min. 5 μL TYK2 kinase (final concentration of 4 nM) was transferred into the 384 reaction plate, which was then centrifuged at 1000 rpm/min for 1 min, and incubated at 25° C. for 15 min. 5 μL substrate mixture (1 mM ATP, IRS1 0.05 mg/ml, kinase buffer solution) was transferred into the 384 reaction plate, which was then centrifuged at 1000 rpm/min for 1 min, and incubated at 25° C. for 60 min. 10 μL ADP-Glo was transferred into the 384 reaction plate, which was then centrifuged at 1000 rpm/min for 1 min, and incubated at 25° C. for 40 min. 20 μL test solution was transferred into the 384 reaction plate, which was centrifuged at 1000 rpm/min for 1 min and incubated at 25° C. for 40 min. RLU (Relative luminescence unit) signal was read by using an Envision multifunctional plate reader. The signal intensity was used to characterize the degree of the kinase activity. […] IC50 value of 0-100 nM is shown as A, IC50 value of 100-300 nM is shown as B, IC50 value of 300-1000 nM is shown as C, and IC50 value which is greater than 1000 nM is shown as D. NT means not tested.

[2] = molecular target: T2, JAK1 kinase (Homo sapiens, UniProt P23458); test: In vitro inhibitory activity on JAK1 kinase (ADP-Glo Kinase Assay); assay type: biochemical; conditions: JAK1 kinase 4 nM, 1 mM ATP
T2 construct: purchased Invitrogen PV4744
Summary of the method: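 JAK1 (4 nM final) preincubated with compound 15 min at 25° C., then substrate mix (1 mM ATP, IRS1 0.05 mg/ml) added for 60 min at 25° C. ADP-Glo luminescence read-out; top concentration 10 μM, 3-fold, 10 points, duplicates; IC50 reported in ranged classes.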

[3] = system: IFN-2α-stimulated TYK2/JAK1-mediated pathway (pSTAT3); test: Inhibition of STAT3 signaling pathway of human whole blood (IFN-2α-induced pSTAT3, flow cytometry); assay type: cell-based
Procedure: Test Example 3: Inhibition Effect of the Compounds of the Present Invention on STAT3 Signaling Pathway of Human Whole Blood
Sample preparation: The compounds of the present invention and the control were dissolved in DMSO solvent respectively to formulate into 10 mM initial liquid. The maximum concentration of the compound was 10 μM, 3-fold dilution, 10 concentration gradients, and duplicate wells for each concentration gradient.
Experimental process: 20 μL of the compound of the present invention was added to a flow cytometer tube (BD, 352052) containing 180 μL anticoagulant sodium heparin. 20 μL PBS was added to the control. The sample was incubated at 37° C. for 30 min. 2 μL stimulating factor was added and then incubated at 37° C. for 20 min. 1 mL erythrocyte lysate was rapidly added, and the sample was repeatedly inverted 5-10 times or vortexed and then incubated at 37° C. for 10 min. The sample was centrifuged at 600 g for 6-8 min. The supernatant was discarded. The precipitate was vortexed until suspending. The cells were washed with 3 mL PBS and centrifuged at 600 g for 6-8 min. The supernatant was discarded. The precipitate was vortexed until suspending. 1 mL of membrane breaking solution was added, and the system was mixed gently, incubated on ice for 30 min, and centrifuged at 600 g for 6-8 min. The supernatant was discarded. The precipitate was vortexed until suspending. The cells were washed. 3 mL PBS was added. The system was centrifuged at 600 g for 6-8 min. The supernatant was discarded. The precipitate was vortexed untile suspending. The process was repeated twice. 100 μL PBS was added to each staining tube. IFN-2a was added for stimulation, and CD3 and pSTAT3 antibodies […] were added. The system was mixed well, protected from light and incubated at room temperature for 60 min. The cells were washed. 3 mL PBS was added. The system was centrifuged at 600 g for 6-8 min. The supernatant was discarded. The precipitate was vortexed until suspending. The precipitate was suspended in 150 μL in the dark for the flow cytometry analysis. The IC50 (half inhibitory concentration) of the compounds was obtained by using the following non-linear fitting equation:
Y=Bottom+(Top−Bottom)/(1+10^((Log IC50−X)*HillSlope));
X: Log value of the concentration of the compound;
Bottom: The minimum value, Top: The maximum value, HillSlope: Slope
The inhibition effect of by the compounds of the present invention on the IFN-2α-stimulated TYK2/JAK1-mediated pathway is shown in Table 3. IC50 value of 0-100 nM is shown as A, IC50 value of 100-300 nM is shown as B, IC50 value of 300-1000 nM is shown as C, IC50 value which is greater than 1000 nM is shown as D. NT means not tested.

[4] = Pharmacokinetic study in rats after oral administration; assay type: in vivo, SD rats
Procedure: Experimental Example 5: Pharmacokinetic Studies of the Compounds of Example 1, Example 1-a, Example 1-b and Example 3 in Rats In order to investigate the blood concentration and pharmacokinetic parameters of the compounds of the present invention after oral administration, the corresponding LC/MS/MS assay and plasma treatment methods were developed for the compounds of the Experimental Examples. […] Male SD rats were orally administered at a dose of 5 mg/kg. Blood was orbitally collected and anticoagulated with sodium heparin. The plasma was deproteinated with acetonitrile. The samples were analyzed by LC/MS/MS method. Wherein, AUC<1000 μg/L*h is shown as C, AUC between 1000-2000 μg/L*h is shown as B, AUC>2000 μg/L*h is shown as A; Cmax<600 μg/L is shown as C, Cmax between 600-900 μg/L is shown as B, and Cmax>900 μg/L is shown as A.

[5] = rat, male SD rats, oral 5 mg/kg, plasma

T2 sequence (P23458 866-1154 limits assumed): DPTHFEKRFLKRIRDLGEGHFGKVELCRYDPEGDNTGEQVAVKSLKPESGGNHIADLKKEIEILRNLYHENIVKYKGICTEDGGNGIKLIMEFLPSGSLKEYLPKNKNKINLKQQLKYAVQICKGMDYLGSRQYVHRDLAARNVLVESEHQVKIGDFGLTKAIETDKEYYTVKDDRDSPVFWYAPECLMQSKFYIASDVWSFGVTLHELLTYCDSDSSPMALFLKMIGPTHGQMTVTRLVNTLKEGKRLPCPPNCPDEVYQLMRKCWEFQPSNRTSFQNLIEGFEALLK

| SMILES | IC50 [2] [nM] | also measured |
| --- | --- | --- |
| Cn1cc(Nc2ncc(F)c(C3=CC4CCC(C3)N4C(=O)NCC#N)n2)cn1 (stereo not drawn) [Compound 11, N-(cyanomethyl)-3-(5-fluoro-2-((1-methyl-1H-pyrazol-4-yl)amino)pyrimidin-4-yl)-8-azabicyclo[3.2.1]oct-2-ene-8-carboxamide] | < 100 | IC50 [1]: < 100 nM |
| Cn1cc(Nc2nccc(C3=CC4CCC(C3)N4C(=O)C3CC3F)n2)cn1 (stereo not drawn) [Compound 51, (2-fluorocyclopropyl)(3-(2-((1-methyl-1H-pyrazol-4-yl)amino)pyrimidin-4-yl)-8-azabicyclo[3.2.1]oct-2-en-8-yl)methanone] | < 100 | IC50 [3]: < 100 nM |
| Cn1cc(Nc2nccc(C3=C[C@@H]4CC[C@H](C3)N4C(=O)[C@@H]3CC3(F)F)n2)cn1 (single isomer, unassigned) [Compound 1-a] | < 100 | IC50 [1]: < 100 nM; IC50 [3]: < 100 nM; pharmacokinetic parameters (in words) ([4]; oral administration in SD rats): good pharmacokinetic parameters; AUC(0-t) [4, 5]: 1000 to 2000 ng·h/mL; Cmax [4, 5]: 600 to 900 ng/mL |
| Cn1cc(Nc2nccc(C3=CC4CCC(C3)N4C(=O)NCC#N)n2)cn1 (stereo not drawn) [Compound 2, N-(cyanomethyl)-3-(2-((1-methyl-1H-pyrazol-4-yl)amino)pyrimidin-4-yl)-8-azabicyclo[3.2.1]oct-2-ene-8-carboxamide] | < 100 | IC50 [1]: < 100 nM |
| Cn1cc(Nc2nccc(C3=CC4CCC(C3)N4C(=O)NC3(C#N)CC3)n2)cn1 (stereo not drawn) [Compound 54, N-(1-cyanocyclopropyl)-3-(2-((1-methyl-1H-pyrazol-4-yl)amino)pyrimidin-4-yl)-8-azabicyclo[3.2.1]oct-2-ene-8-carboxamide] | > 1000 | IC50 [3]: < 100 nM |
| Cn1cc(Nc2nccc(C3=CC4CCC(C3)N4C(=O)C3CC3(C)C)n2)cn1 (stereo not drawn) [Compound 60, (2,2-Dimethylcyclopropyl)(3-(2-((1-methyl-1H-pyrazol-4-yl)amino)pyrimidin-4-yl)-8-azabicyclo[3.2.1]oct-2-en-8-yl)methanone] | > 1000 |  |
| Cn1cc(Nc2nccc(C3=CC4CCC(C3)N4C(=O)C3(C#N)CCOCC3)n2)cn1 (stereo not drawn) [Compound 64, 4-(3-(2-((1-methyl-1H-pyrazol-4-yl)amino)pyrimidin-4-yl)-8-azabicyclo[3.2.1]oct-2-ene-8-carbonyl)tetrahydro-2H-pyran-4-cyano] | 300 to 1000 |  |
| Cc1cnc(Nc2cn(C)nc2C)nc1C1=CC2CCC(C1)N2C(=O)NCC(F)(F)F (stereo not drawn) [Compound 26, 3-(2-((1,3-dimethyl-1H-pyrazol-4-yl)amino)-5-methylpyrimidin-4-yl)-N-(2,2,2-trifluoroethyl)-8-azabicyclo[3.2.1]oct-2-ene-8-carboxamide] | < 100 |  |
| Cn1cc(Nc2nccc(C3=CC4CCC(C3)N4C(=O)C34CC(F)(C3)C4)n2)cn1 (stereo not drawn) [Compound 74, (3-fluorobicyclo[1.1.1]pentan-1-yl)(3-(2-((1-methyl-1H-pyrazol-4-yl)amino)pyrimidin-4-yl)-8-azabicyclo[3.2.1]oct-2-en-8-yl)methanone] | > 1000 |  |
| Cn1cc(Nc2nccc(C3=C[C@@H]4CC[C@H](C3)N4C(=O)NCC(F)(F)F)n2)cn1 [Compound 3-a, (1S,5R)-3-(2-((1-methyl-1H-pyrazol-4-yl)amino)pyrimidin-4-yl)-N-(2,2,2-trifluoroethyl)-8-azabicyclo[3.2.1]oct-2-ene-8-carboxamide] | < 100 |  |
| Cn1cc(Nc2nccc(C3=CC4CCC(C3)N4C(=O)C3(C)COC3)n2)cn1 (stereo not drawn) [Compound 13, (3-(2-((1-methyl-1H-pyrazol-4-yl)amino)pyrimidin-4-yl)-8-azabicyclo[3.2.1]oct-2-en-8-yl)(3-methyloxetan-3-yl)methanone] | > 1000 |  |
| O=C(NCC(F)(F)F)N1C2C=C(c3ccnc(Nc4cnn(CCO)c4)n3)CC1CC2 (stereo not drawn) [Compound 42, 3-(2-((1-(2-hydroxyethyl)-1H-pyrazol-4-yl)amino)pyrimidin-4-yl)-N-(2,2,2-trifluoroethyl)-8-azabicyclo[3.2.1]oct-2-ene-8-carboxamide] | < 100 |  |
| Cc1cnc(Nc2cnn(C)c2C)nc1C1=CC2CCC(C1)N2C(=O)NCC(F)(F)F (stereo not drawn) [Compound 27, 3-(2-((1,5-dimethyl-1H-pyrazol-4-yl)amino)-5-methylpyrimidin-4-yl)-N-(2,2,2-trifluoroethyl)-8-azabicyclo[3.2.1]oct-2-ene-8-carboxamide] | 300 to 1000 |  |
| C[C@@H](NC(=O)N1C2C=C(c3ccnc(Nc4cnn(C)c4)n3)CC1CC2)C(F)(F)F (stereo partly drawn) [Compound 56, 3-(2-((1-Methyl-1H-pyrazol-4-yl)amino)pyrimidin-4-yl)-N-((R)-1,1,1-trifluoropropane-2-yl)-8-azabicyclo[3.2.1]oct-2-ene-8-carboxamide] | 300 to 1000 |  |
| Cn1cc(Nc2nccc(C3=CC4CCC(C3)N4C(=O)CCC(F)(F)F)n2)cn1 (stereo not drawn) [Compound 5, 4,4,4-trifluoro-1-(3-(2-((1-methyl-1H-pyrazol-4-yl)amino)pyrimidin-4-yl)-8-azabicyclo[3.2.1]oct-2-en-8-yl)butan-1-one] | 300 to 1000 |  |
| Cn1cc(Nc2ncc(F)c(C3=CC4CCC(C3)N4C(=O)NCC(F)(F)F)n2)cn1 (stereo not drawn) [Compound 12, 3-(5-fluoro-2-((1-methyl-1H-pyrazol-4-yl)amino)pyrimidin-4-yl)-N-(2,2,2-trifluoroethyl)-8-azabicyclo[3.2.1]oct-2-ene-8-carboxamide] | < 100 | IC50 [1]: < 100 nM |
| Cn1cc(Nc2nccc(C3=CC4CCC(C3)N4C(=O)N3CCC(F)(F)C3)n2)cn1 (stereo not drawn) [Compound 8, (3,3-difluoropyrrolidin-1-yl)(3-(2-((1-methyl-1H-pyrazol-4-yl)amino)pyrimidin-4-yl)-8-azabicyclo[3.2.1]oct-2-en-8-yl)methanone] | 300 to 1000 |  |
